Read-outs that look alike come from different tables or passages of the source.

What all share (format): biochemical
One assay deals with T1, human Src enzyme (Homo sapiens, UniProt P12931).
T1 construct: purchased Carna Biosciences, Inc. 08-173
Kind of assay: Src enzyme inhibitory activity (time-resolved fluorometry, biotinylated peptide phosphorylation). The conditions noted are these: read-out: SRC_IC50. In outline:
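Compounds were tested for blocking tyrosine phosphorylation of a biotinylated peptide substrate by recombinant human Src. Phosphorylated product was quantified by time-resolved fluorometry using europium cryptate and XL665 conjugates, and IC50 was calculated against the compound-free control.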

For the next assay, the target named is T2, human Yes1 enzyme (Homo sapiens, UniProt P07947).
T2 construct: made in house
T2 sequence (P07947 whole entry): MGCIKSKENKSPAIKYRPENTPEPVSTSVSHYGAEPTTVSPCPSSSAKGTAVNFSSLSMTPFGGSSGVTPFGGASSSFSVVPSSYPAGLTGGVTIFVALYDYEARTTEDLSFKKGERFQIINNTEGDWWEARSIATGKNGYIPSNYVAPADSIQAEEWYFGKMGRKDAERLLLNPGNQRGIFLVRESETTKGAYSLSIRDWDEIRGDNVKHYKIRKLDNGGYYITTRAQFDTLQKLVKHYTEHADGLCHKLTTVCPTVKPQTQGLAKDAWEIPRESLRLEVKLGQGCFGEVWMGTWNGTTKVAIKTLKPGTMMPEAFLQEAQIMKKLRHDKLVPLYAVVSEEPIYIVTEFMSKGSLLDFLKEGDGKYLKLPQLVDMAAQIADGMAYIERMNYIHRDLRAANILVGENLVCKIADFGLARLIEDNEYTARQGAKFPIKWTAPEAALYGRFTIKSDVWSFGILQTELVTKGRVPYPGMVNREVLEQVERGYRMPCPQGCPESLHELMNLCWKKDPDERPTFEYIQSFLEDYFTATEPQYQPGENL
Kind of assay: Yes1 enzyme inhibitory activity (time-resolved fluorometry, biotinylated peptide phosphorylation). Particulars: read-out: YES_IC50. In outline: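 Inhibition was expressed against a compound-free control to give IC50, using TR-FRET read-out (Eu-cryptate anti-pTyr antibody, streptavidin-XL665).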

In another assay the target is T3, human Lck enzyme (Homo sapiens, UniProt P06239).
T3 construct: purchased Carna Biosciences, Inc. 08-170
T3 sequence (P06239 whole entry): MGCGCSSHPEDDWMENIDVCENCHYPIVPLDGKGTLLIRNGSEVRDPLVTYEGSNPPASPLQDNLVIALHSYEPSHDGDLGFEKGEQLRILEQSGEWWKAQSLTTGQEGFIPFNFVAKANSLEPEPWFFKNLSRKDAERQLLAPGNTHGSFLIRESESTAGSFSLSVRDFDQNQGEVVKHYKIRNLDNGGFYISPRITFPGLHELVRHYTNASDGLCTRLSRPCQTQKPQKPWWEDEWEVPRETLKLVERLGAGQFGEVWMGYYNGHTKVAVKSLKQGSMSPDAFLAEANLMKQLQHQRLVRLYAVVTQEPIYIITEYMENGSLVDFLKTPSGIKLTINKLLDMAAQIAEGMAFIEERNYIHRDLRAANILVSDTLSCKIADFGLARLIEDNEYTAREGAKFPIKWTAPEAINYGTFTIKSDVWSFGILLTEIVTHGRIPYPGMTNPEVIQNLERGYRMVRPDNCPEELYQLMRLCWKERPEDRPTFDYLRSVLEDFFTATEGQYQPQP
Kind of assay: Lck enzyme inhibitory activity (time-resolved fluorometry, biotinylated peptide phosphorylation). Particulars: read-out: LCK_IC50. In outline: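 Readout pairs a europium cryptate-labelled anti-phosphotyrosine antibody with XL665-streptavidin, measured by time-resolved fluorescence. IC50 derived from percent inhibition against untreated controls.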

Where [1] appears, read: biotinylated peptide phosphorylation.

T1 sequence (P12931 whole entry): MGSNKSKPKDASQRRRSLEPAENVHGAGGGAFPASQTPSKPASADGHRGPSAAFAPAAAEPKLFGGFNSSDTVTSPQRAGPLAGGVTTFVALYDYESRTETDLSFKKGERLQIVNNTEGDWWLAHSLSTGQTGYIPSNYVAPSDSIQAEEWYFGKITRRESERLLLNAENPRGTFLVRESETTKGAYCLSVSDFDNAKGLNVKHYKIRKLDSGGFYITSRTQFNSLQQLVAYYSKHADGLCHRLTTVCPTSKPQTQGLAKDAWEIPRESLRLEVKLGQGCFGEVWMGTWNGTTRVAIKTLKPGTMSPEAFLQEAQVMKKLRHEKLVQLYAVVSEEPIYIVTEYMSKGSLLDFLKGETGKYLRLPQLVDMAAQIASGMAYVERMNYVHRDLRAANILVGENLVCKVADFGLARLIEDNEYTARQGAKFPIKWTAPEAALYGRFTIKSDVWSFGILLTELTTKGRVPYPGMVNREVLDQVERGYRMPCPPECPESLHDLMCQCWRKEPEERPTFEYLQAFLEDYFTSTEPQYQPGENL

In the case of `Cc1cc(Oc2ccccc2F)cc(F)c1-n1ncc(C(=O)c2cc3cc(OCC(F)F)c(N4CCC(N5CCOCC5)CC4)cc3[nH]2)c1N` [Example 4-25-029, [5-amino-1-[2-fluoro-4-(2-fluorophenoxy)-6-methylphenyl]pyrazol-4-yl]-[5-(2,2-difluoroethoxy)-6-(4-morpholin-4-ylpiperidin-1-yl)-1H-indol-2-yl]methanone], the results for the IC50 at human Src enzyme (setting [1]), at human Yes1 enzyme (setting [1]) and at human Lck enzyme (setting [1]) were 21 nM, 2.4 nM and 6.8 nM, respectively.
On to `Cc1cc(-n2ncc(C(=O)c3cc4cc(N5CCOCC5)c(N5C(=O)NC(C)(C)C5=O)cc4[nH]3)c2N)ccc1Oc1ccccc1F` [Example 5-1-164, 3-[2-[5-amino-1-[4-(2-fluorophenoxy)-3-methylphenyl]pyrazole-4-carbonyl]-5-morpholin-4-yl-1H-indol-6-yl]-5,5-dimethylimidazolidine-2,4-dione], for which the IC50 at human Src enzyme came out at 700 nM; at human Yes1 enzyme, 1.8 nM; at human Lck enzyme, 69 nM.
As for `Cc1cc(Oc2ccccc2F)ncc1-n1ncc(C(=O)c2cc3cc(OCC(F)F)c(NS(=O)(=O)c4cccc(Cl)c4)cc3[nH]2)c1N` [Example 5-1-424, N-[2-[5-amino-1-[6-(2-fluorophenoxy)-4-methylpyridin-3-yl]pyrazole-4-carbonyl]-5-(2,2-difluoroethoxy)-1H-indol-6-yl]-3-chlorobenzenesulfonamide], the IC50 at human Src enzyme (setting [1]) was found to be 480 nM; at human Yes1 enzyme (setting [1]), 5.6 nM; at human Lck enzyme (setting [1]), 200 nM.
On the same counts, the results for `Cc1cc2cc(C(=O)c3cnn(-c4ccc(Oc5ccccc5F)cc4C)c3N)[nH]c2cc1NS(=O)(=O)N1CCOCC1` [Example 4-2-105, N-[2-[5-amino-1-[4-(2-fluorophenoxy)-2-methylphenyl]pyrazole-4-carbonyl]-5-methyl-1H-indol-6-yl]morpholine-4-sulfonamide] are 100 nM, 0.36 nM and 24 nM.
In the case of `Cc1cc(Oc2c(F)cccc2F)ncc1-n1ncc(C(=O)c2cc3cc(OCC(F)F)c(NS(=O)(=O)c4ccc(Cl)cc4)cc3[nH]2)c1N` [Example 5-1-298, N-[2-[5-amino-1-[6-(2,6-difluorophenoxy)-4-methylpyridin-3-yl]pyrazole-4-carbonyl]-5-(2,2-difluoroethoxy)-1H-indol-6-yl]-4-chlorobenzenesulfonamide], the IC50 at human Src enzyme was 630 nM; at human Yes1 enzyme, 8.9 nM; on human Lck enzyme, 93 nM.
As for `Cc1cc(Oc2ccccc2F)ncc1-n1ncc(C(=O)c2cc3cc(F)c(NS(=O)(=O)CC(=O)N4CCOCC4)cc3[nH]2)c1N` [Example 4-10-006, N-[2-[5-amino-1-[6-(2-fluorophenoxy)-4-methylpyridin-3-yl]pyrazole-4-carbonyl]-5-fluoro-1H-indol-6-yl]-2-morpholin-4-yl-2-oxoethanesulfonamide], the results for the IC50 at human Src enzyme (setting [1]), at human Yes1 enzyme (setting [1]) and at human Lck enzyme (setting [1]) were 37 nM, 1 nM and 19 nM, respectively.
On the same counts, the results for `CC(C)N1CCC(c2cc3cc(C(=O)c4cnn(-c5ccc(Oc6cccc(Cl)c6)cc5)c4N)[nH]c3cc2F)CC1` [Example 4-2-005, [5-amino-1-[4-(3-chlorophenoxy)phenyl]pyrazol-4-yl]-[6-fluoro-5-(1-propan-2-ylpiperidin-4-yl)-1H-indol-2-yl]methanone] are 20 nM, 1.5 nM and 5 nM.
On to `Cc1cc2cc(C(=O)c3cnn(-c4cnc(Oc5c(F)cccc5F)cc4C)c3N)[nH]c2cc1NS(=O)(=O)c1cncc(Cl)c1` [Example 5-1-541, N-[2-[5-amino-1-[6-(2,6-difluorophenoxy)-4-methylpyridin-3-yl]pyrazole-4-carbonyl]-5-methyl-1H-indol-6-yl]-5-chloropyridine-3-sulfonamide], for which the IC50 is 660 nM at human Src enzyme (setting [1]), 12 nM at human Yes1 enzyme (setting [1]) and 280 nM on human Lck enzyme (setting [1]).
As for `Cc1cc(Oc2ccccc2F)ncc1-n1ncc(C(=O)c2cc3cc(OC(F)F)c(NS(C)(=O)=O)cc3[nH]2)c1N` [Example 4-24-008, N-[2-[5-amino-1-[6-(2-fluorophenoxy)-4-methylpyridin-3-yl]pyrazole-4-carbonyl]-5-(difluoromethoxy)-1H-indol-6-yl]methanesulfonamide], the IC50 at human Src enzyme (setting [1]) amounted to 99 nM; on human Yes1 enzyme (setting [1]), 2.1 nM; at human Lck enzyme (setting [1]), 19 nM.
Take `Cc1cc2cc(C(=O)c3cnn(-c4cnc(Oc5ccccc5F)cc4C)c3N)[nH]c2cc1NS(=O)(=O)c1cncc(Cl)c1` [Example 5-1-495, N-[2-[5-amino-1-[6-(2-fluorophenoxy)-4-methylpyridin-3-yl]pyrazole-4-carbonyl]-5-methyl-1H-indol-6-yl]-5-chloropyridine-3-sulfonamide]: the figures for the IC50 at human Src enzyme (setting [1]), on human Yes1 enzyme (setting [1]) and at human Lck enzyme (setting [1]) were 550 nM, 3.9 nM and 360 nM, respectively.
With `Cc1cc(Oc2cccc(F)c2)ncc1-n1ncc(C(=O)c2cc3cc(F)c(NS(=O)(=O)CCCF)cc3[nH]2)c1N` [Example 5-1-059, N-[2-[5-amino-1-[6-(3-fluorophenoxy)-4-methylpyridin-3-yl]pyrazole-4-carbonyl]-5-fluoro-1H-indol-6-yl]-3-fluoropropane-1-sulfonamide], the IC50 on human Src enzyme is 130 nM; on human Yes1 enzyme it was 3.4 nM; on human Lck enzyme, 33 nM.
On the same counts, the results for `CC(C)N1CCC(c2cc3[nH]c(C(=O)c4cnn(-c5ccc(Oc6cccc(Cl)c6)cc5)c4N)cc3cc2F)CC1` [Example 5-1-008, [5-amino-1-[4-(3-chlorophenoxy)phenyl]pyrazol-4-yl]-[5-fluoro-6-(1-propan-2-ylpiperidin-4-yl)-1H-indol-2-yl]methanone] are 60 nM, 2.7 nM and 4.6 nM.
Consider `Cc1cc(Oc2ccccc2F)ncc1-n1ncc(C(=O)c2cc3cc(OCC(F)F)c(N4CCCS4(=O)=O)cc3[nH]2)c1N` [Example 4-25-001, {5-amino-1-[6-(2-fluorophenoxy)-4-methylpyridin-3-yl]pyrazol-4-yl}-[5-(2,2-difluoroethoxy)-6-(1,1-dioxo-1,2-thiazolidin-2-yl)-1H-indol-2-yl]methanone], for which the IC50 was 29 nM at human Src enzyme (setting [1]), 1.6 nM at human Yes1 enzyme (setting [1]) and 9.6 nM on human Lck enzyme (setting [1]).
The like results for `Cc1cccc(S(=O)(=O)Nc2cc3[nH]c(C(=O)c4cnn(-c5cnc(Oc6c(F)cccc6F)cc5C)c4N)cc3cc2F)n1` [Example 5-1-533, N-[2-[5-amino-1-[6-(2,6-difluorophenoxy)-4-methylpyridin-3-yl]pyrazole-4-carbonyl]-5-fluoro-1H-indol-6-yl]-6-methylpyridine-2-sulfonamide] were, in that order, 510 nM, 4.7 nM and 120 nM.
With `Cc1cc2cc(C(=O)c3cnn(-c4cnc(Oc5ccccc5F)cc4C)c3N)[nH]c2cc1NS(=O)(=O)c1cc(Cl)cc(C#N)c1` [Example 5-1-498, N-[2-[5-amino-1-[6-(2-fluorophenoxy)-4-methylpyridin-3-yl]pyrazole-4-carbonyl]-5-methyl-1H-indol-6-yl]-3-chloro-5-cyanobenzenesulfonamide], the IC50 at human Src enzyme (setting [1]) is 1600 nM; at human Yes1 enzyme (setting [1]), 8.7 nM; at human Lck enzyme (setting [1]) it was 420 nM.

Values taken from patent US10479780B2, “Aminopyrazole derivatives” (Chugai Seiyaku Kabushiki Kaisha, priority 2015, dated 2019).
